Results: patent publication US20080255155A1, “KINASE INHIBITORS AND USES THEREOF” (priority 2006, published 2008)

Experiments:
[1] = biological target: T1, recombinant human c-Met/HGF receptor (Homo sapiens, UniProt P08581); experiment: In vitro receptor tyrosine kinase assay, c-Met (DELFIA); type: biochemical; conditions: ATP 10 uM, enzyme 25 nM; read-out: Potency in enzyme assays Cmet
T1 construct: His tag; made in house; host or cells: Hi-5 cells (Trichoplusia ni), recombinant baculovirus
Text: (§1) These tests measure the ability of compounds to inhibit the enzymatic activity of recombinant human c-Met/HGF receptor and VEGF receptor enzymatic activity.
A 1.3-kb cDNA corresponding to the intracellular domain of c-Met or c-Met IC (Genbank accession number NP000236-1 amino acid […]) is cloned into the BamHI/XhoI sites of the pBlueBacHis2A vector (Invitrogen) for the production of a histidine-tagged version of that enzyme. This construct is used to generate recombinant baculovirus using the Bac-N-Blue™ system according to the manufacturer's instructions (Invitrogen).
(§2) The c-Met IC protein is expressed in Hi-5 cells (Trichoplusia Ni) upon infection with recombinant baculovirus construct. Briefly, Hi-5 cells grown in suspension and maintained in serum-free medium (Sf900 II supplemented with gentamycin) at a cell density of about 2×10^6 cells/ml are infected with the above-mentioned viruses at a multiplicity of infection (MOI) of 0.2 during 72 hours at 27° C. with agitation at 120 rpm on a rotary shaker. Infected cells are harvested by centrifugation at 398 g for 15 min. Cell pellets are frozen at −80° C. until purification is performed.
All steps described in cell extraction and purification are performed at 4° C. Frozen Hi-5 cell pellets infected with the C-Met IC recombinant baculovirus are thawed and gently resuspended in Buffer A (20 mM Tris pH 8.0, 10% glycerol, 1 μg/ml pepstatin, 2 μg/ml Aprotinin and leupeptin, 50 μg/ml PMSF, 50 μg/ml TLCK and 10 μM E64, 0.5 mM DTT and 1 mM Levamisole) using 3 ml of buffer per gram of cells. The suspension is Dounce homogenized after which it is centrifuged at 22500 g, 30 min., 4° C. The supernatant (cell extract) is used as starting material for purification of c-Met IC.
The supernatant is loaded onto a QsepharoseFF column (Amersham Biosciences) equilibrated with Buffer B (20 mM Tris pH 8.0, 10% glycerol) supplemented with 0.05M NaCl. Following a ten column volume (CV) wash with equilibration buffer, bound proteins are eluted with a 5 CV salt linear gradient spanning from 0.05 to 1M NaCl in Buffer B. Typically, the conductivity of selected fractions rank between 6.5 and 37 mS/cm. This Qsepharose eluate has an estimated NaCl concentration of 0.33M and is supplemented with a 5M NaCl solution in order to increase NaCl concentration at 0.5M and also with a 5M Imidazole (pH 8.0) solution to achieve a final imidazole concentration of 15 mM. This material is loaded onto a HisTrap affinity column (GE Healthcare) equilibrated with Buffer C (50 mM NaPO4 pH 8.0, 0.5M NaCl, 10% glycerol) supplemented with 15 mM imidazole. After a 10 CV wash with equilibration buffer and an 8 CV wash with buffer C+40 mM imidazole, bound proteins are eluted with an 8 CV linear gradient (15 to 500 mM) of imidazole in buffer C. C-Met IC enriched fractions from this chromatography step are pooled based on SDS-PAGE analysis. This pool of enzyme undergoes buffer exchange using PD-10 column (GE Healthcare) against buffer D (25 mM HEPES pH 7.5, 0.1M NaCl, 10% glycerol and 2 mM β-mercaptoethanol). Final C-Met IC protein preparations concentrations are about 0.5 mg/ml with purity approximating 80%. Purified c-Met IC protein stocks are supplemented with BSA at 1 mg/ml, aliquoted and frozen at −80° C. prior to use in enzymatic assay.
Inhibition of c-Met/HGF receptor and VEGFR/KDR is measured in a DELFIA™ assay (Perkin Elmer). The substrate poly(Glu4,Tyr) is immobilized onto black high-binding polystyrene 96-well plates. The coated plates are washed and stored at 4° C. During the assay, enzymes are pre-incubated with inhibitor and Mg-ATP on ice in polypropylene 96-well plates for 4 minutes, and then transferred to the coated plates. The subsequent kinase reaction takes place at 30° C. for 10-30 minutes. ATP concentrations in the assay are 10 uM for C-Met (5× the Km) and 0.6 uM for VEGFR/KDR (2× the Km). Enzyme concentration is 25 nM (C-Met) or 5 nM (VEGFR/KDR). […]

VEGF receptor KDR = biological target: T2, VEGF receptor KDR (Homo sapiens, UniProt P35968); experiment: In vitro receptor tyrosine kinase assay, VEGF receptor KDR (DELFIA); type: biochemical; conditions: ATP 0.6 uM, enzyme 5 nM; read-out: Potency in enzyme assays VEGF
T2 construct: made in house; host or cells: Sf9 cells (Spodoptera frugiperda), recombinant baculovirus
Text: as §1
In the case of VEGF receptor KDR a 1.6-kb cDNA corresponding to the catalytic domain of VEGFR2 or KDR (Genbank accession number AF035121 amino acid 806 to 1356) is cloned into the Pst I site of the pDEST20 Gateway vector (Invitrogen) for the production of a GST-tagged version of that enzyme. This construct is used to generate recombinant baculovirus using the Bac-to-Bac system according to the manufacturer's instructions (Invitrogen).
as §2, with “GST-VEGFR2806-1356” for “c-Met IC”, “Sf9” for “Hi-5”, “(Spodoptera frugiperda)” for “(Trichoplusia Ni)”, “0.1” for “0.2”
All steps described in cell extraction and purification are performed at 4° C. Frozen Sf9 cell pellets infected with the GST-VEGFR2806-1356 recombinant baculovirus re thawed and gently resuspended in Buffer A (PBS pH 7.3 supplemented with 1 μg/ml pepstatin, 2 μg/ml Aprotinin and leupeptin, 50 μg/ml PMSF, 50 μg/ml TLCK and 10 μM E64 and 0.5 mM DTT) using 3 ml of buffer per gram of cells. Suspension is Dounce homogenized and 1% Triton X-100 is added to the homogenate after which it is centrifuged at 22500 g, 30 min., 4° C. The supernatant (cell extract) is used as starting material for purification of GST-VEGFR2806-1356.
The supernatant is loaded onto a GST-agarose column (Sigma) equilibrated with PBS pH 7.3. Following a four column volume (CV) wash with PBS pH 7.3+1% Triton X-100 and 4 CV wash with buffer B (50 mM Tris pH 8.0, 20% glycerol and 100 mM NaCl), bound proteins are step eluted with 5 CV of buffer B supplemented with 5 mM DTT and 15 mM glutathion. GST-VEGFR2806-1356 enriched fractions from this chromatography step are pooled based on U.V. trace i.e. fractions with high O.D^-280- Final GST-VEGFR2806-1356 protein preparations concentrations are about 0.7 mg/ml with purity approximating 70%. Purified GST-VEGFR2806-1356 protein stocks are aliquoted and frozen at −80° C. prior to use in enzymatic assay.
Inhibition of c-Met/HGF receptor and VEGFR/KDR is measured in a DELFIA™ assay (Perkin Elmer). The substrate poly(Glu4,Tyr) is immobilized onto black high-binding polystyrene 96-well plates. The coated plates are washed and stored at 4° C. During the assay, enzymes are pre-incubated with inhibitor and Mg-ATP on ice in polypropylene 96-well plates for 4 minutes, and then transferred to the coated plates. The subsequent kinase reaction takes place at 30° C. for 10-30 minutes. ATP concentrations in the assay are 10 uM for C-Met (5× the Km) and 0.6 uM for VEGFR/KDR (2× the Km). Enzyme concentration is 25 nM (C-Met) or 5 nM (VEGFR/KDR). After incubation, the kinase reactions are quenched with EDTA and the plates are washed. Phosphorylated product is detected by incubation with Europium-labeled anti-phosphotyrosine MoAb. After washing the plates, bound MoAb is detected by time-resolved fluorescence in a Gemini SpectraMax reader (Molecular Devices). Compounds are evaluated over a range of concentrations and IC50's (concentration of compounds giving 50% inhibition of enzymatic activity) are determined.

A549 = A549 wound healing inhibition; conditions: Homo sapiens; A549 cells; read-out: Potency in cell-based assays A549 wound healing inhibition
DU145 = DU145 scattering inhibition; conditions: Homo sapiens, DU-145; DU145 cells; read-out: Potency in cell-based assays DU145 scattering inhibition

T1 sequence (P08581 1078-1337): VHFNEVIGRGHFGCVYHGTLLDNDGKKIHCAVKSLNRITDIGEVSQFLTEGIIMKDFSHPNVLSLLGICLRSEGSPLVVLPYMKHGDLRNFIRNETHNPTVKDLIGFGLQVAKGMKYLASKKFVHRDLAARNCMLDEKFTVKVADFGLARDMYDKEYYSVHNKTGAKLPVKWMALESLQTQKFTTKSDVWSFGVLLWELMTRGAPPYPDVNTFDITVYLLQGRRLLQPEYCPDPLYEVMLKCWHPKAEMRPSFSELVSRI
T2 sequence (P35968 806-1356): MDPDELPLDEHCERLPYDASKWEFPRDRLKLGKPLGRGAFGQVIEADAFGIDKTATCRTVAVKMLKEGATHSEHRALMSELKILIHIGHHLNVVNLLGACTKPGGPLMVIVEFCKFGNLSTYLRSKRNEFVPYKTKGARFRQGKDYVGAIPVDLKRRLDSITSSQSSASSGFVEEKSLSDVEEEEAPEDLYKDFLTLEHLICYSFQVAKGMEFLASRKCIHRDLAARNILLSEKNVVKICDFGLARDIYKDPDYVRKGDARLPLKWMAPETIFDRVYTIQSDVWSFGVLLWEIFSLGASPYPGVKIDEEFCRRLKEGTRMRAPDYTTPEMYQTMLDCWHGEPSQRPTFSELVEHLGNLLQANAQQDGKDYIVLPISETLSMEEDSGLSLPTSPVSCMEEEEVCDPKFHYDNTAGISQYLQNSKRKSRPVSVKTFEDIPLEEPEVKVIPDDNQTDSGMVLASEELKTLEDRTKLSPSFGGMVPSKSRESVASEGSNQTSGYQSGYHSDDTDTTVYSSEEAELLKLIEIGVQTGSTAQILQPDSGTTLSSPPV

IC50 [1] [nM] | IC50 (VEGF receptor KDR) [nM] | IC50 (A549) [nM] | IC50 (DU145) [nM] | SMILES
500 to 1000 | ≥ 1000 | 1000 to 5000 | ≥ 1000 | O=C(Nc1ccc(Oc2ccncc2)c(F)c1)N1CCN(c2ccccc2Cl)C1=O [Compound 21h, 3-(2-chlorophenyl)-N-(3-fluoro-4-(pyridin-4-yloxy)phenyl)-2-oxoimidazolidine-1-carboxamide]
< 250 | < 250 | ≥ 1000 | ≥ 1000 | CN(C)[C@@H]1CCN(C(=O)Nc2cc(Oc3ccc(NC(=O)N4CCN(c5ccc(F)cc5)C4=O)cc3F)ccn2)C1 [Compound 18g, (R)-N-(4-(2-(3-(dimethylamino)pyrrolidine-1-carboxamido)pyridin-4-yloxy)-3-fluorophenyl)-3-(4-fluorophenyl)-2-oxoimidazolidine-1-carboxamide]
